According to PubChem BioAssay AID651875 (NMMLSC, 2012):

Test system: AM2.2 cells FAP-GPR32, fluorogen binding, flow cytometry MCF
Test: interference with FAP fluorogen signal – AM2.2 cells, flow cytometry, powder set 4, counter-screen for beta2AR agonist internalization project, dose response (AID 651875)

SMILES	EC50 [nM]
Cc1ccc(S(=O)(=O)N(C)CC(=O)N2CCN(c3ccccn3)CC2)cc1	3.7
COc1ccccc1N1CCN(C(=O)CN(C)S(=O)(=O)c2ccc(C)cc2)CC1	974
CC(=O)Nc1ccc(S(=O)(=O)N2CCCCC2c2cccnc2)cc1 (stereo not given)	15.6
O=C(C1CCC(=O)N1S(=O)(=O)c1ccccc1)N1CCN(c2ccccn2)CC1 (stereo not given)	49.6
O=C(CN(Cc1ccccc1)S(=O)(=O)c1ccc(Cl)cc1)N1CCN(c2ccccn2)CC1	316
